Data taken from ChEMBL document CHEMBL5724914, “Linking interpersonal differences in gut microbiota composition and drug biotransformation activity” (2024).

What was measured:
[1] = (§1) The drug is tested on Z-001 corresponding to mouse gut metagenome with ENA study accession number: PRJEB37062 and ENA sample accession number: ERS12561801 for biotransformation under anaerobic condition. The drug concentrations were measured over 9 timepoints collected between 0 and 24 hours of incubation by liquid-chromatography-coupled mass spectrometry (LC–MS); conditions: 2 µM
[2] = human gut metagenome, 24 h, 2 µM
[3] = human gut metagenome, 24 h, 2 µM; remark: listed apart in the source
[4] = human gut metagenome, 24 h, 2 µM; remark: listed apart in the source
[5] = as §1, with “Z-003” for “Z-001”, “pig” for “mouse”, “ERS12561803” for “ERS12561801”; conditions: 2 µM
[6] = as §1, with “WLS-350” for “Z-001”, “human” for “mouse”, “ERS12561789” for “ERS12561801”; conditions: 2 µM
[7] = human gut metagenome, 24 h, 2 µM; remark: listed apart in the source
[8] = human gut metagenome, 24 h, 2 µM; remark: listed apart in the source
[9] = as §1, with “WLS-006” for “Z-001”, “human” for “mouse”, “ERS12561741” for “ERS12561801”; conditions: 2 µM
[10] = human gut metagenome, 24 h, 2 µM; remark: listed apart in the source
[11] = as §1, with “Z-021” for “Z-001”, “to” for “to mouse gut”, “ERS12561820” for “ERS12561801”; conditions: 2 µM
[12] = human gut metagenome, 24 h, 2 µM; remark: listed apart in the source
[13] = human gut metagenome, 24 h, 2 µM; remark: listed apart in the source
[14] = as §1, with “Z-024” for “Z-001”, “pig” for “mouse”, “ERS12561823” for “ERS12561801”; conditions: 2 µM
[15] = human gut metagenome, 24 h, 2 µM; remark: listed apart in the source
[16] = as §1, with “Z-007” for “Z-001”, “rat” for “mouse”, “ERS12561807” for “ERS12561801”; conditions: 2 µM
[17] = as §1, with “WLS-220” for “Z-001”, “human” for “mouse”, “ERS12561769” for “ERS12561801”; conditions: 2 µM
[18] = as §1, with “Z-025” for “Z-001”, “rabbit” for “mouse”, “ERS12561824” for “ERS12561801”; conditions: 2 µM
[19] = as §1, with “WLS-310” for “Z-001”, “human” for “mouse”, “ERS12561785” for “ERS12561801”; conditions: 2 µM
[20] = as §1, with “Z-018” for “Z-001”, “pig” for “mouse”, “ERS12561817” for “ERS12561801”; conditions: 2 µM
Note: call rule not given here.

Bacterial Biotransformation [1] | Bacterial Biotransformation [2] | Bacterial Biotransformation [3] | Bacterial Biotransformation [4] | Bacterial Biotransformation [5] | Bacterial Biotransformation [6] | Bacterial Biotransformation [7] | Bacterial Biotransformation [8] | Bacterial Biotransformation [9] | Bacterial Biotransformation [10] | Bacterial Biotransformation [11] | Bacterial Biotransformation [12] | Bacterial Biotransformation [13] | Bacterial Biotransformation [14] | Bacterial Biotransformation [15] | Bacterial Biotransformation [16] | Bacterial Biotransformation [17] | Bacterial Biotransformation [18] | Bacterial Biotransformation [19] | Bacterial Biotransformation [20] | Compound
Compound metabolized | Compound NOT metabolized | Compound NOT metabolized | Compound NOT metabolized | Compound metabolized | Compound NOT metabolized | Compound NOT metabolized | Compound NOT metabolized | Compound NOT metabolized | Compound NOT metabolized | Compound metabolized | Compound NOT metabolized | Compound NOT metabolized | Compound metabolized | Compound NOT metabolized | Compound metabolized | – | – | – | – | CSc1ccc2c(c1)C(N1CCN(C)CC1)Cc1ccccc1S2.O=C(O)/C=C\C(=O)O (configuration not stated)
Compound NOT metabolized | Compound NOT metabolized | Compound NOT metabolized | Compound NOT metabolized | Compound metabolized | Compound NOT metabolized | Compound NOT metabolized | Compound NOT metabolized | Compound NOT metabolized | Compound NOT metabolized | Compound metabolized | Compound NOT metabolized | Compound NOT metabolized | Compound metabolized | – | Compound NOT metabolized | Compound NOT metabolized | Compound metabolized | Compound metabolized | Compound metabolized | COc1ccc(/C=C/C(=O)Nc2ccccc2C(=O)O)cc1OC
Compound NOT metabolized | Compound NOT metabolized | Compound NOT metabolized | Compound NOT metabolized | Compound NOT metabolized | Compound NOT metabolized | Compound NOT metabolized | Compound NOT metabolized | Compound NOT metabolized | Compound NOT metabolized | Compound metabolized | Compound NOT metabolized | Compound NOT metabolized | Compound metabolized | Compound NOT metabolized | Compound NOT metabolized | Compound NOT metabolized | Compound NOT metabolized | Compound NOT metabolized | – | CCOC(=O)[C@H](CCc1ccccc1)N[C@@H](C)C(=O)N1CCC[C@H]1C(=O)O.O=C(O)/C=C\C(=O)O [ENALAPRIL MALEATE]
Compound NOT metabolized | Compound metabolized | Compound metabolized | Compound metabolized | Compound metabolized | Compound metabolized | Compound metabolized | Compound metabolized | Compound metabolized | Compound metabolized | Compound NOT metabolized | Compound metabolized | Compound metabolized | Compound metabolized | Compound metabolized | Compound metabolized | Compound metabolized | Compound metabolized | Compound metabolized | – | CC(=O)OCC(CCn1cnc2cnc(N)nc21)COC(C)=O [FAMCICLOVIR]
Compound NOT metabolized | – | – | – | Compound metabolized | Compound metabolized | Compound metabolized | Compound metabolized | – | – | Compound metabolized | Compound metabolized | – | Compound metabolized | – | Compound metabolized | – | Compound metabolized | Compound metabolized | Compound metabolized | COC1=C(OC)C(=O)C(CCCCCCCCCCO)=C(C)C1=O [IDEBENONE]
Compound metabolized | Compound metabolized | Compound metabolized | Compound metabolized | Compound metabolized | – | Compound metabolized | Compound metabolized | – | Compound metabolized | Compound metabolized | Compound metabolized | Compound metabolized | Compound metabolized | Compound metabolized | – | – | Compound metabolized | – | Compound metabolized | C#C[C@]1(OC(C)=O)CC[C@H]2[C@@H]3CCC4=CC(=O)CC[C@@H]4[C@H]3CC[C@@]21C [NORETHINDRONE ACETATE]
Compound NOT metabolized | Compound NOT metabolized | Compound metabolized | Compound NOT metabolized | Compound NOT metabolized | Compound NOT metabolized | Compound NOT metabolized | Compound NOT metabolized | – | Compound NOT metabolized | Compound NOT metabolized | Compound NOT metabolized | Compound NOT metabolized | Compound NOT metabolized | Compound NOT metabolized | Compound NOT metabolized | Compound metabolized | Compound metabolized | Compound NOT metabolized | Compound NOT metabolized | COc1cc(NC(C)CCCN)c2ncccc2c1.O=P(O)(O)O.O=P(O)(O)O (configuration not stated) [PRIMAQUINE PHOSPHATE]
Compound metabolized | Compound metabolized | Compound metabolized | Compound metabolized | Compound metabolized | Compound metabolized | Compound metabolized | Compound NOT metabolized | – | Compound metabolized | Compound metabolized | – | Compound metabolized | Compound metabolized | Compound metabolized | Compound metabolized | Compound metabolized | Compound metabolized | Compound metabolized | Compound metabolized | CC(=O)OCC(=O)NCCCOc1cccc(CN2CCCCC2)c1 [ROXATIDINE ACETATE]
Compound NOT metabolized | Compound NOT metabolized | Compound NOT metabolized | Compound NOT metabolized | Compound NOT metabolized | Compound NOT metabolized | Compound NOT metabolized | Compound NOT metabolized | Compound NOT metabolized | Compound NOT metabolized | Compound NOT metabolized | Compound NOT metabolized | Compound NOT metabolized | Compound metabolized | Compound NOT metabolized | Compound NOT metabolized | Compound NOT metabolized | – | Compound NOT metabolized | Compound NOT metabolized | CCCCCNC(=N)N/N=C/c1c[nH]c2ccc(OC)cc12.O=C(O)/C=C\C(=O)O [TEGASEROD MALEATE]

Compound | Bacterial Biotransformation [1] | Bacterial Biotransformation [2] | Bacterial Biotransformation [3] | Bacterial Biotransformation [4] | Bacterial Biotransformation [5] | Bacterial Biotransformation [6] | Bacterial Biotransformation [7] | Bacterial Biotransformation [8] | Bacterial Biotransformation [9] | Bacterial Biotransformation [10] | Bacterial Biotransformation [11] | Bacterial Biotransformation [12] | Bacterial Biotransformation [13] | Bacterial Biotransformation [14] | Bacterial Biotransformation [15] | Bacterial Biotransformation [16] | Bacterial Biotransformation [17] | Bacterial Biotransformation [18] | Bacterial Biotransformation [19] | Bacterial Biotransformation [20]
CN1[C@@H]2CC[C@H]1C[C@@H](OC(=O)[C@H](CO)c1ccccc1)C2 [HYOSCYAMINE] | Compound NOT metabolized | Compound NOT metabolized | – | – | – | – | – | Compound metabolized | – | Compound metabolized | Compound NOT metabolized | Compound NOT metabolized | – | Compound NOT metabolized | – | Compound NOT metabolized | – | Compound NOT metabolized | Compound metabolized | Compound NOT metabolized
